Like-named read-outs stand apart in the source and are kept apart here.

The source of these data is US7728015B2, “Compositions for weight management” (Mor Research Applications Ltd., priority 2004, dated 2010).

For series [1], the target named is H3-receptor (Homo sapiens, UniProt Q9Y5N1). Conditions: receptor binding studies; cited from earlier work.
The conditions of series [2]: cited from earlier work.
The conditions of series [3]: in vivo, cited from earlier work.
The conditions of series [4]: rats, cited from earlier work.
For series [5] the following is noted: pygmy goats, high doses intraperitoneally; cited from earlier work.
Series [6] in a line: Blood metabolite levels of a healthy overweight person before and after one month of betahistine. The format is in vivo, human. Further details: Total cholesterol / HDL-cholesterol / LDL-cholesterol / Triglycerides: unit not given here.
Series [7] in a line: Randomized placebo controlled double-blinded study of oral betahistine on food intake, caloric intake and weight in obese persons. The format is in vivo, human. The procedure: Weight, caloric intake (24 hour recall) and appetite during the day (VAS, Visual Analogue Score) were obtained on day 0, 14 and 28 of the study. Subjects were instructed to eat according to their appetite without limitations. Statistical significance was assessed with t-test. BMI stands for body mass index.

For series [8] the following is noted: rats, cited from earlier work. This is another data set of the same source.
The mark [9] stands for this setting: Day 30, betahistine 16 mg twice daily, blood test.
[10] abbreviates: betahistine 16 mg orally twice a day, FIG. 5.

Sequence of H3-receptor (Q9Y5N1 whole entry): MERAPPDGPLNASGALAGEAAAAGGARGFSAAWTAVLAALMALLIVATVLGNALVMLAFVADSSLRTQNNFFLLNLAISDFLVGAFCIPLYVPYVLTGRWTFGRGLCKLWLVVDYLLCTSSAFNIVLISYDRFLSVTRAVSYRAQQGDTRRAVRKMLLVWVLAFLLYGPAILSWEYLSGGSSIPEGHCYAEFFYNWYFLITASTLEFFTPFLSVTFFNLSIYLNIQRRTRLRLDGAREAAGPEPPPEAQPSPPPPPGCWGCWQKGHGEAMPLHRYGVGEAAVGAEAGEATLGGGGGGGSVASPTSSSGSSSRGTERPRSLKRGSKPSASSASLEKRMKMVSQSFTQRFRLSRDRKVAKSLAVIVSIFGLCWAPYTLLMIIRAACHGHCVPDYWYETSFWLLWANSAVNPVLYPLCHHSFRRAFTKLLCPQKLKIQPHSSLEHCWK

For orientation: half-life means the time needed for the level to fall by half in the phase considered. For `CNCCc1ccccn1` [betahistine, 2-[2-(methylamino)ethyl]pyridine], the H3-receptor activity result in series [1] is on record as “potent H3-receptor antagonist”. Moreover, the “weight gain from week 2 to the end of the study” value in series [2] (betahistine and olanzapine for 6 weeks, three patients) is listed as “no weight gain was observed”. In series [2] (betahistine/olanzapine-treated patients, 6 weeks), the “mean weight gain compared with olanzapine/placebo-treated patients” value is “lower”. Besides, the half-life result in series [3] was “about 3.5 hours”. For the same compound, in series [3] (listed as Betahistine), the half-life is 3.5 h. Besides, the food intake result in series [4] (given intragastrically) is “this effect was not seen”. Also, the food intake entry in series [4] (given intraperitoneally) was “decreased food intake”. For the same compound, in series [5], the food intake entry was “decreased food intake” and the water intake result is given as “increased water intake”. For the same compound, in series [6] (setting [9]), the Fructoseamine came out at 202, the HDL-cholesterol is reported as 58, the LDL-cholesterol is on record as 84 and the Total cholesterol is 155. Besides, the Triglycerides in series [6] (setting [9]) came to 62. In series [6] (Day 30 vs Day 0), the “Fructoseamine Change” value is recorded as “+4%”, the “HDL-cholesterol Change” value was “+7%”, the “LDL-cholesterol Change” value is −15% and the “Total cholesterol Change” value is reported as −7%. In addition, the “Triglycerides Change” value in series [6] (Day 30 vs Day 0) is on record as −10%. For the same compound, the “adverse event reported by a subject” value in series [7] (Subject No. 5, day 5, betahistine 16 mg twice a day) is “food aversion that did not allow them to consume any food”. Further, in series [7] (setting [10]), the “reduction in carbohydrate consumption” value is reported as 6%, the “reduction in fat consumption” value is recorded as 49% and the “reduction in protein consumption” value is reported as 35%. Moreover, in series [7] (betahistine 16 mg orally twice a day, day 14 of treatment), the total caloric intake is listed as 80 percents of the pre-treatment level. In addition, the total caloric intake in series [7] (betahistine 16 mg orally twice a day, day 28 of treatment) is given as 68 percents of the pre-treatment level. Besides, the “subjects who lost more than 1 kg during the study period” value in series [7] (treatment group, 28 day study, no food restriction) is “Four out of seven”.
With `Cc1nc(N)nc(N)c1-c1ccc(Cl)c(Cl)c1` [metoprine], in series [8] (FIG. 2), the “intakes of carbohydrates or protein” value is “no marked effect”. Also, the “daily energy intake and ingestion of fat” value in series [8] (intraperitoneal injection) was “suppressed daily energy intake and ingestion of fat”. In addition, the half-life in series [3] is 216 h.
